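Five compound concentrations were applied to cells in 96-well plates for 48 hours; endpoints were derived by simple linear interpolation of the resulting dose-response curve. At the GI50, growth is halved. Definition used: TGI = concentration required for complete inhibition of growth.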
How the values were obtained:
Assay in all cases: growth of human tumour cells (NCI), 48 h
HOP-92 NSCLC = system: HOP-92 NSCLC
A549 NSCLC = system: A549 NSCLC
PC-3 prostate = system: PC-3 prostate
HS 578T breast = system: HS 578T breast
MDA-MB-231 breast = system: MDA-MB-231 breast
NCI-H23 lung = system: NCI-H23 lung
MOLT-4 leukemia = system: MOLT-4 leukemia
IGROV1 ovarian = system: IGROV1 ovarian
SK-MEL-28 melanoma = system: SK-MEL-28 melanoma
UACC-62 melanoma = system: UACC-62 melanoma
LOX IMVI melanoma = system: LOX IMVI melanoma
COLO 205 colon = system: COLO 205 colon
HL-60(TB) leukemia = system: HL-60(TB) leukemia
U251 CNS = system: U251 CNS
EKVX NSCLC = system: EKVX NSCLC
MDA-MB-435 = system: MDA-MB-435
HOP-62 NSCLC = system: HOP-62 NSCLC
A498 renal = system: A498 renal
SK-MEL-5 melanoma = system: SK-MEL-5 melanoma
MCF7 breast = system: MCF7 breast
SW-620 colon = system: SW-620 colon
HCT-116 colon = system: HCT-116 colon
SF-268 CNS = system: SF-268 CNS
SF-539 CNS = system: SF-539 CNS
M14 melanoma = system: M14 melanoma
HCT-15 colon = system: HCT-15 colon
SK-MEL-2 melanoma = system: SK-MEL-2 melanoma
OVCAR-3 ovarian = system: OVCAR-3 ovarian
UO-31 renal = system: UO-31 renal
KM12 colon = system: KM12 colon
OVCAR-5 ovarian = system: OVCAR-5 ovarian
SNB-19 CNS = system: SNB-19 CNS
HCC-2998 colon = system: HCC-2998 colon
NCI-H226 lung = system: NCI-H226 lung
CAKI-1 renal = system: CAKI-1 renal
RXF 393 renal = system: RXF 393 renal
HT29 colon = system: HT29 colon
RPMI-8226 leukemia = system: RPMI-8226 leukemia
786-0 renal = system: 786-0 renal
SF-295 CNS = system: SF-295 CNS
TK-10 renal = system: TK-10 renal
NCI/ADR-RES ovarian = system: NCI/ADR-RES ovarian
NCI-H460 lung = system: NCI-H460 lung
ACHN renal = system: ACHN renal
DU-145 prostate = system: DU-145 prostate
OVCAR-8 ovarian = system: OVCAR-8 ovarian
T-47D breast = system: T-47D breast
NCI-H522 lung = system: NCI-H522 lung
SN12C renal = system: SN12C renal
UACC-257 melanoma = system: UACC-257 melanoma
K-562 leukemia = system: K-562 leukemia

Compound: COc1cc(/C=C2\CC3C4CC=C5C[C@@H](OC(C)=O)CC[C@]5(C)C4CC[C@]3(C)C2=O)ccc1OCCCn1ccnc1 (some centres not stated)
- GI50 (HOP-92 NSCLC): 25.4 µM
- TGI (HOP-92 NSCLC): > 50 µM
- GI50 (A549 NSCLC): 13 µM
- TGI (A549 NSCLC): 33.9 µM
- GI50 (PC-3 prostate): 18 µM
- TGI (PC-3 prostate): 42.1 µM
- GI50 (HS 578T breast): 8.26 µM
- TGI (HS 578T breast): 21.3 µM
- GI50 (MDA-MB-231 breast): 8.05 µM
- TGI (MDA-MB-231 breast): 15.4 µM
- GI50 (NCI-H23 lung): 8.35 µM
- TGI (NCI-H23 lung): 17.7 µM
- GI50 (MOLT-4 leukemia): 20.5 µM
- TGI (MOLT-4 leukemia): > 50 µM
- GI50 (IGROV1 ovarian): 13.7 µM
- TGI (IGROV1 ovarian): 46.8 µM
- GI50 (SK-MEL-28 melanoma): 16 µM
- TGI (SK-MEL-28 melanoma): > 50 µM
- GI50 (UACC-62 melanoma): 8.4 µM
- TGI (UACC-62 melanoma): 16.5 µM
- GI50 (LOX IMVI melanoma): 8.63 µM
- TGI (LOX IMVI melanoma): 15.5 µM
- GI50 (COLO 205 colon): 20.7 µM
- TGI (COLO 205 colon): > 50 µM
- GI50 (HL-60(TB) leukemia): 11.2 µM
- TGI (HL-60(TB) leukemia): 21.8 µM
- GI50 (U251 CNS): 8.93 µM
- TGI (U251 CNS): 15.9 µM
- GI50 (EKVX NSCLC): 0.0741 µM
- TGI (EKVX NSCLC): 5.18 µM
- GI50 (MDA-MB-435): 10.3 µM
- TGI (MDA-MB-435): 26.6 µM
- GI50 (HOP-62 NSCLC): 8.83 µM
- TGI (HOP-62 NSCLC): 16.4 µM
- GI50 (A498 renal): 9.31 µM
- TGI (A498 renal): 21.6 µM
- GI50 (SK-MEL-5 melanoma): 9.39 µM
- TGI (SK-MEL-5 melanoma): 21.5 µM
- GI50 (MCF7 breast): 9.36 µM
- TGI (MCF7 breast): 21 µM
- GI50 (SW-620 colon): 10.1 µM
- TGI (SW-620 colon): 23.3 µM
- GI50 (HCT-116 colon): 13.4 µM
- TGI (HCT-116 colon): 29.6 µM
- GI50 (SF-268 CNS): 9.13 µM
- TGI (SF-268 CNS): 21.5 µM
- GI50 (SF-539 CNS): 6.89 µM
- TGI (SF-539 CNS): 14.2 µM
- GI50 (M14 melanoma): 9.28 µM
- TGI (M14 melanoma): 17.9 µM
- GI50 (HCT-15 colon): 9.52 µM
- TGI (HCT-15 colon): 20.4 µM
- GI50 (SK-MEL-2 melanoma): 16.8 µM
- TGI (SK-MEL-2 melanoma): > 50 µM
- GI50 (OVCAR-3 ovarian): 9.79 µM
- TGI (OVCAR-3 ovarian): 21.2 µM
- GI50 (UO-31 renal): 9.14 µM
- TGI (UO-31 renal): 19.9 µM
- GI50 (KM12 colon): 8.75 µM
- TGI (KM12 colon): 16.2 µM
- GI50 (OVCAR-5 ovarian): 11.9 µM
- TGI (OVCAR-5 ovarian): 40.9 µM
- GI50 (SNB-19 CNS): 20.2 µM
- TGI (SNB-19 CNS): > 50 µM
- GI50 (HCC-2998 colon): 14.6 µM
- TGI (HCC-2998 colon): 23 µM
- GI50 (NCI-H226 lung): 8.26 µM
- TGI (NCI-H226 lung): 17.8 µM
- GI50 (CAKI-1 renal): 5.81 µM
- TGI (CAKI-1 renal): 27.3 µM
- GI50 (RXF 393 renal): 13 µM
- TGI (RXF 393 renal): 30.3 µM
- GI50 (HT29 colon): 16 µM
- TGI (HT29 colon): > 50 µM
- GI50 (RPMI-8226 leukemia): 9.66 µM
- TGI (RPMI-8226 leukemia): 24.2 µM
- GI50 (786-0 renal): 8.87 µM
- TGI (786-0 renal): 16 µM
- GI50 (SF-295 CNS): 9.22 µM
- TGI (SF-295 CNS): 22.3 µM
- GI50 (TK-10 renal): 7.08 µM
- TGI (TK-10 renal): 17.3 µM
- GI50 (NCI/ADR-RES ovarian): 8.94 µM
- TGI (NCI/ADR-RES ovarian): 19.5 µM
- GI50 (NCI-H460 lung): 9.32 µM
- TGI (NCI-H460 lung): 21.1 µM
- GI50 (ACHN renal): 9.81 µM
- TGI (ACHN renal): 21 µM
- GI50 (DU-145 prostate): 1.31 µM
- TGI (DU-145 prostate): 10.2 µM
- GI50 (OVCAR-8 ovarian): 11 µM
- TGI (OVCAR-8 ovarian): 21.6 µM
- GI50 (T-47D breast): 19.8 µM
- TGI (T-47D breast): > 50 µM
- GI50 (NCI-H522 lung): 19 µM
- TGI (NCI-H522 lung): > 50 µM
- GI50 (SN12C renal): 8.99 µM
- TGI (SN12C renal): 16.6 µM
- GI50 (UACC-257 melanoma): 10.4 µM
- TGI (UACC-257 melanoma): 22.5 µM
- GI50 (K-562 leukemia): 9.69 µM
- TGI (K-562 leukemia): 24.7 µM

Reference: PubChem BioAssay (NCI)
